According to patent US20140050810A1, “ANTI-OBESITY COMPOSITION COMPRISING LYCIUM CHINENSIS LEAF EXTRACT AND BETAINE AS ACTIVE INGREDIENT” (BIONUTRIGEN CO., LTD., priority 2012, published 2014):
“And” between values parts separate entries of the source, which are not always exact repeats. Identical values can stand only once. Marks after values point to notes of the source that are not given here.

Tests used:
[1] = Anti-obesity effect of betaine and Lycium chinensis leaf extract powder in human body; format: in vivo; details: Betaine 3 g twice/day 43 days
Description: In order to evaluate the anti-obesity effect of Lycium chinensis leaf extract powder and betaine, subjects' weight, body mass index (BMI), body fat, body fat percentage, and muscle mass were measured prior to the administration of betaine and Lycium chinensis leaf extract powder. Betaine and Lycium chinensis leaf extract powder were separately dissolved in water and administered at a single dose of 3 g and 10 g, respectively, twice a day just before breakfast and supper.
In consideration of their component properties, the Lycium chinensis leaf extract powder, which comprised various components, was administered for 22 days while 43 days was also allocated for the administration of betaine, a single compound. Preventive and therapeutic effects of the two ingredients on obesity were evaluated in view of changes in weight, BMI, body fat, body fat percentage, and muscle mass.

[2] = system: high-fat diet-induced obesity models; experiment: Weight change in high-fat diet-induced obesity mice; format: in vivo, C57BL/6 mice; details: JBB21 1, LWE 2, JBB21+LWE 1+2 g/kg
Description: (§1) Betaine (JBB21), a Lycium chinensis hot water extract powder (LWE), or a mixture thereof (JBB21+LWE) was orally administered five times a week to high-fat diet-induced obesity models and their effects on obesity, hyperlipidemia and fatty liver were analyzed. JBB21 and LWE were purchased as white and brown powders, respectively, from Bionutrigen, and stored at room temperature before use in the experiment.
(§2) C57BL/6, specific pathogen-free (SPF) mice (male, six weeks old, Division of Biomedical Research, Korea Research Institute of Bioscience and Biotechnology) were used as the test animals.
(§3) For comparison, a negative control and an obese group (high fat diet, HFD) were allowed to freely eat a radiation-sterilized control diet (CD, 10% kcal, Research Diets) and a high fat diet (HFD, 60% Kcal, Research Diets, supplied by Central Lab. Animal), respectively, during the administration of JBB21, LWE, or JBB21+LWE.
(§4) JBB21, LWE, and JBB21+LWE were dissolved in 3.D.W at concentrations of 100 mg/mL, 200 mg/mL, and 100+200 mg/mL, respectively, and each of the solutions was orally administered at a dose of 10 mL/kg five times a week for 56 days.
The negative control (CD), the obese group (HFD), and the test groups (JBB21, LWE, and JBB21+LWE) were monitored three times a week for weight change and diet intake before and during administration.
Each of the solutions of JBB21 and LWE was administered at a single dose of 10 mL/kg five times a week for 56 days. […] The LWE (2 g/kg) group decreased in weight by 6.5% by the last day, but no significant changes in weight had been observed during the test period.

[3] = system: high-fat diet-induced obesity models; experiment: Subcutaneous fat and total fat in high-fat diet-induced obesity mice; format: in vivo, C57BL/6 mice; details: JBB21 1, LWE 2, JBB21+LWE 1+2 g/kg
Description: as §1, §2, §3, §4
Meanwhile, subcutaneous fat was also measured.
In addition, total fat was measured in the mice administered with JBB21, LWE, or JBB21+LWE.

[4] = system: high-fat diet-induced obesity models; experiment: Blood leptin, adiponectin and triglyceride levels in high-fat diet-induced obesity mice; format: in vivo, C57BL/6 mice; details: JBB21 1, LWE 2, JBB21+LWE 1+2 g/kg
Description: as §1, §2, §3, §4
Blood samples taken on 56 days after the administration of a mixture of JBB21 and LWE were placed in heparin-coated tubes and stored on ice, followed by centrifugation at 6,000 rpm for 5 min. The plasma thus obtained was analyzed for levels of blood leptin, a hormone marker for obesity, adiponectin, an anti-obesity hormone, and triglyceride levels, using an automated biochemistry analyzer (AU400, Olympus, Japan). Leptin and adiponectin vary in secretion and function depending on the level of fat accumulated in the body. The preventive and therapeutic effects of the mixture according to the present invention were determined in view of plasma levels of leptin and adiponectin.
In this regard, the blood levels of the hormones were measured using Mouse Leptin ELISA kit (Cat. #: MOB00) and Mouse Adiponectin ELISA kit (Cat. #: MRP300), respectively, both commercially available from R&D Systems.

[5] = system: high-fat diet-induced obesity models; experiment: Effect on liver function: liver weight, hepatic triglyceride, GOT, GPT, pathology in high-fat diet-induced obesity mice; format: in vivo, C57BL/6 mice
Description: as §1, §2, §3, §4
Mice administered with JBB21, LWE, and JBB21+LWE were euthanized with CO2 gas and underwent laparotomy to excise the livers therefrom. The livers were weighed with a chemical balance, and compared with those from the control and the obese groups. A part of the liver was frozen in liquid nitrogen (LN2) to measure triglyceride and cholesterol contents while the other part was fixed in formalin for pathological analysis.
The frozen liver tissues were homogenized by a homogenizer, followed by centrifugation. The supernatant was analyzed for hepatic triglyceride and cholesterol levels using a triglyceride quantification kit (Cat. #: K622-100), and a cholesterol/cholesteryl ester quantification kit (Cat. #: K603-100), respectively, both commercially available from Biovision.
For pathological analysis, the liver tissue fixed in formalin was embedded in a paraffin block, and sectioned, and stained with H&E (Hematoxylin & Eosin) before observation under an optical microscope (FIG. 1).

[6] = L. chinensis leaf extract powder 10 g twice/day 22 days
[7] = L. chinensis leaf extract powder 10 g twice/day 22 days, baseline
[8] = HFD mice, oral five times a week for 56 days
[9] = compared to the obese group (Vehicle Control)
[10] = HFD mice, JBB21 1, LWE 2, JBB21+LWE 1+2 g/kg
[11] = vs. Vehicle Control, JBB21 1, LWE 2, JBB21+LWE 1+2 g/kg

C[N+](C)(C)CC(=O)O [JBB21, betaine]
BMI, After Administration [1]: 29.3 | BMI, Reduction [1]: 2.7% | Body Fat, After Administration [1, 6]: 25.9 | Body Fat, Change [1, 6]: -1.7 kg | Body Fat, Reduction [1, 6]: 6.2% | Body Fatness (body fat percentage), After Administration [1, 6]: 30.7 | Body Fatness (body fat percentage), Change [1, 6]: -1% | Body Fatness (body fat percentage), Reduction [1, 6]: 3.2% | Muscle Mass, After Administration [1, 6]: 55.5 | Muscle Mass, Change [1, 6]: -0.7 kg | Muscle Mass, Reduction [1, 6]: 1.3% | Weight, After Administration [1, 6]: 84.0 kg | Weight, Change [1, 6]: -3.0 kg | Weight, Reduction [1, 6]: 3.5% | Body Fat, Before Administration [1, 7]: 27.6 | Body Fatness (body fat percentage), Before Administration [1, 7]: 31.7 | Muscle Mass, Before Administration [1, 7]: 56.2 | Weight, Before Administration [1, 7]: 87.0 kg | BMI, Before Administration ([1]; baseline): 30.1 | Weight, day 0 after treatment ([2]; day 0, HFD (60% Kcal) mice, oral five times a week, n = 10, in g (unit assumed)): 31.1 ± 1.5 | Weight, day 11 after treatment ([2]; day 11, HFD (60% Kcal) mice, oral five times a week, n = 10, in g (unit assumed)): 31.9 ± 1.6 | Weight IR(%), day 11 ([2]; day 11, vs. Vehicle Control (obese group)): 5.6% | Weight, day 21 after treatment ([2]; day 21, HFD (60% Kcal) mice, oral five times a week, n = 10, in g (unit assumed)): 34.5 ± 1.8 | Weight IR(%), day 21 ([2]; day 21, vs. Vehicle Control (obese group)): 5.8% | Weight, day 30 after treatment ([2]; day 30, HFD (60% Kcal) mice, oral five times a week, n = 10, in g (unit assumed)): 36.1 ± 2.3 | Weight IR(%), day 30 ([2]; day 30, vs. Vehicle Control (obese group)): 8.8% | Weight, day 39 after treatment ([2]; day 39, HFD (60% Kcal) mice, oral five times a week, n = 10, in g (unit assumed)): 38.4 ± 2.7 | Weight IR(%), day 39 ([2]; day 39, vs. Vehicle Control (obese group)): 9.6* % | Weight, day 51 after treatment ([2]; day 51, HFD (60% Kcal) mice, oral five times a week, n = 10, in g (unit assumed)): 40.9 ± 3.1 | Weight IR(%), day 51 ([2]; day 51, vs. Vehicle Control (obese group)): 9.6* % | Weight, day 56 after treatment ([2]; day 56, HFD (60% Kcal) mice, oral five times a week, n = 10, in g (unit assumed)): 42.0 ± 3.4 | Weight IR(%) / weight loss, day 56 (last day) ([2]; day 56, vs. Vehicle Control (obese group)): 9.4% | Subcutaneous Fat [3, 8]: 2975.4 ± 530.4 mg | Total Fat [3, 8]: 7030.2 ± 947.9 mg | Subcutaneous Fat IR(%) [3, 9]: 14.2% | Total Fat IR(%) [3, 9]: 4.3% and 4.2% | Leptin IR(%) [4, 9]: 9.1% and 9.2% | Leptin (blood) ([4]; plasma, day 56, HFD mice): 134.3 ng/mL | Triglyceride (blood) ([4]; plasma, day 56, HFD mice): 74.7 mg/dL | Triglyceride (blood) IR(%) ([4]; vs. Vehicle Control): 22.3% | Liver Wt ([5]; HFD mice, 56 days, JBB21 1, LWE 2, JBB21+LWE 1+2 g/kg): 1511.2 mg | liver appearance / hepatic fat deposits (in words) ([5]; HFD mice, H&E-stained liver tissue (FIG. 1)): clean and healthy livers almost free of fat deposits | GOT [5, 10]: 57.1 IU/L | GPT [5, 10]: 39.8 IU/L | GOT IR(%) ([5]; compared to the obese group (Vehicle Control), JBB21 1, LWE 2, JBB21+LWE 1+2 g/kg): 59.8% | Hepatic triglyceride ([5]; liver homogenate supernatant, HFD mice, JBB21 1, LWE 2, JBB21+LWE 1+2 g/kg): 3.1389 nmol/mL | Liver Wt IR(%) ([5]; relative to the obese group (Vehicle Control), JBB21 1, LWE 2, JBB21+LWE 1+2 g/kg): 25.4% | GPT IR(%) [5, 11]: 67.2% | Hepatic triglyceride IR(%) [5, 11]: 10.8%
